Assay results from patent US20250255888A1, “Use of Baby Aspirin with Diphenhydramine or other Sleep Aids” (priority 2024, published 2025).
Counter-ions that a name gives are not always drawn.

Experiment: Self-reported use as a sleep aid at night: sleep and morning aftereffects (applicant and two friends)
Type: in vivo
Conditions: patent applicant, taken for sleep, morning after; worse with less than seven hours of sleep
Excerpt: They further recommended same to two of their close friends who had complained of same aftereffects of Benadryl.
When aspirin was used with other sleep aids that contain diphenhydramine as an active ingredient, similar result was obtained.

SMILES: CN(C)CCOC(c1ccccc1)c1ccccc1 [Benadryl, diphenhydramine HCL]
- aftereffects in the morning (poor sleep quality, lingering drowsiness, difficulty concentrating): would experience some of the aftereffects of Benadryl such as poor sleep quality, lingering drowsiness or difficulty concentrating
